Laboratory results taken from patent US5070210A, “Novel ketenimines as intermediates for insecticides” (ICI Americas Inc., priority 1990, dated 1991).

How the values were obtained:
Type in all cases: in vivo
[1] = tested on: Tobacco Budworm [Heliothis virescens (Fabricius)] eggs; test: Tobacco budworm egg test; details: 2-day old eggs, percent in solution
Procedure, shortened: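 Mortality of dipped eggs served as read-out, recorded after untreated controls hatched and began feeding. Treatments used acetone solutions from 0.1% downward, with eggs incubated at 78° F; LC50 is expressed as percent of compound in the solution.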

[2] = tested on: Rice water weevil [Lissorhoptrus oryzophilus (Kuschel)]; test: Rice water weevil insecticidal test; details: topical, μg per weevil; 48 hours
Experimental: The compounds in Tables 1 and 2 above were tested for insecticidal activity using the following testing procedures. LC50 values, based on the results of these tests and calculated according to dosage-mortality curves, are expressed in Table 3.
Rice water weevil [Lissorhoptrus oryzophilus (Kuschel)]:
Test compounds were diluted in acetone. Droplets (1 μl) of test solutions were applied to the ventral abdomens of ten female adult weevils. The treated weevils were placed in containers with wet cotton balls and rice foliage. The containers were covered and kept at a temperature of about 25° C. Mortality was recorded after 48 hours. Test concentrations ranged from […] or 2.5 μg per weevil down to that at which 50% mortality occurred. The LC50 values are expressed below in Table 3 under the heading "RWW" in terms of μg of test compound per weevil.

[3] = tested on: Aster Leafhopper [Macrosteles fascifrens (Stal)]; test: Aster leafhopper insecticidal test; details: adults/nymphs, percent in solution; 48 hours
Procedure, shortened: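 LC50 values, given as percent of test compound in the dip solution, were derived from dosage-mortality curves over concentrations from 0.05% downward. Mortality was counted 48 hours after ten leafhopper adults/nymphs were enclosed on treated seedlings. The seedlings were oats, about 10 cm tall, briefly dipped in 50-50 acetone-water.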

[4] = tested on: Cabbage Looper [Trichoplusia ni (Hubner)]; test: Cabbage looper insecticidal test; details: second-instar larvae, percent in solution; 3-5 days
Procedure, shortened: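 Steps: dilute compound in 50-50 acetone-water from 0.1% downward; immerse cotyledon pieces 2-3 s and dry; place in humid petri dishes with five second-instar larvae; record mortality at 3-5 days. Dosage-mortality curves yield LC50 as percent in solution.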

[5] = tested on: Tobacco Budworm [Heliothis virescens (Fabricius)] larvae; test: Tobacco budworm contact test; details: second-instar larvae, percent in solution, 5 days
Procedure, shortened: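 Cotton cotyledons dipped 2–3 s in compound in 50-50 acetone-water, dried, then infested with 5 second-instar larvae and held 5 days at high humidity. Mortality scored; LC50 from dosage-mortality curves, expressed as percent compound in solution, concentrations from 0.1% downward.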

[6] = tested on: Housefly [Musca domestica]; test: Housefly insecticidal test; details: μg per 25 female flies; mortality after 48 hours
Procedure, shortened: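 LC50, as μg compound per 25 female flies, comes from dosage-mortality curves with doses from 100 μg downward. Residues were made by evaporating acetone plus 0.01% peanut oil in dishes, onto which 1-2-day-old females were caged; deaths were counted after 48 hours.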

[7] = tested on: Beet Armyworm (Spodoptera exigua); test: Beet armyworm insecticidal test; details: second-instar larvae, percent in solution; five days
Procedure, shortened: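 Five second-instar larvae per dish fed on dried sugar beet leaves previously dipped 2–3 s in acetone-water (1:1) test solutions up to 0.1%. Kept at high humidity, with deaths counted after five days; LC50 as % in solution via dosage-mortality curves.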

[8] = tested on: Maize weevil [Sitophilus Zeamais (Motschulsky)]; test: Maize weevil insecticidal test; details: adult weevils, percent in solution; 48 hours
Procedure, shortened: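 LC50, in percent of compound in solution, was derived from dosage-mortality curves after 48 h at about 25 °C. Ten adult weevils per container fed on four corn seeds briefly immersed in acetone:water (50:50) solutions of up to 0.01% and dried.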

Compound | LC50, TBW, E (TBW-E) [1] [%] | LC50, RWW [2] [µg] | LC50, LH [3] [%] | LC50, CL [4] [%] | LC50, TBW, C (TBW-C) [5] [%] | LC50, HF [6] [µg] | LC50, BAW [7] [%] | LC50, MW [8] [%]
CC(C)C(=Nc1cc(F)cc(F)c1)OCc1cccc(Oc2ccccc2)c1 [Compound 55] | 0.06 | > 2.5 | 0.0005 | 0.0017 | 0.004 | > 100 | 0.006 | 
CC(C)C(=Nc1ccc(F)c(Cl)c1)OCc1cccc(Oc2ccccc2)c1 [Compound 81] | 0.007 | > 0.5 | 0.0003 | 0.0006 | 0.0009 | 4 | 0.003 | 0.005
CC(C)C(=Nc1ccc(F)c(Cl)c1)OCc1ccc(F)c(Oc2ccccc2)c1 [Compound 82] | 0.006 | 0.086 | 0.0001 | 0.00018 | 0.0008 | 2.5 | 0.0025 | 
CC(C)C(=Nc1ccc(F)c(Cl)c1)OCc1cccc(Oc2ccc(F)cc2)c1 [Compound 89] | 0.04 | > 2.5 | 0.001 | 0.00003 | 0.0005 | 5 | 0.009 | 0.005
CC(C)C(=Nc1ccc2c(c1)OCO2)OCc1cccc(Oc2ccccc2)c1 [Compound 180] | 0.03 | > 2.5 | 0.0015 | 0.0004 | 0.003 | 2 | 0.005 | 0.008
CC(C)C(=Nc1ccc2c(c1)OCO2)OCc1ccc(F)c(Oc2ccccc2)c1 [Compound 181] | 0.01 | > 2.5 |  | 0.0005 | 0.001 | 25 | 0.001 | 0.005
CC(C)C(=Nc1ccc(F)c(Cl)c1)OCc1ccc(F)c(Oc2ccc(F)cc2)c1 [Compound 216] | 0.005 | 0.067 | 0.00025 | 0.000007 | 0.00018 | 2 | 0.0007 | 0.0017
CC(C)C(=Nc1ccc(F)c(Cl)c1)OCc1cccc(Oc2ccc(Cl)cc2)c1 [Compound 239] | 0.025 | > 2.5 | 0.002 | 0.00015 | 0.0005 | 14 | 0.005 | 0.006
CC(C)C(=Nc1ccc2c(c1)OC(F)(F)O2)OCc1cccc(Oc2ccc(F)cc2)c1 [Compound 244] | > 0.1 | 0.09 |  | 0.00004 | 0.00025 | 14 | 0.002 | 0.0025
CC(C)C(=Nc1ccc2c(c1)OC(F)(F)O2)OCc1cccc(Oc2ccccc2)c1 [Compound 245] | 0.016 | > 2.5 |  | 0.0035 | 0.0015 | 20 | 0.001 | 0.006
CC(C)C(=Nc1ccc(F)c(Cl)c1)OCc1ccc(F)c(Oc2ccc(Cl)cc2)c1 [Compound 267] | 0.015 | 0.11 | 0.002 | 0.00008 | 0.0003 | 8.4 | 0.0012 | 0.0027
CC(C)C(=Nc1ccc(Cl)cc1)OCc1cccc(Oc2ccc(Cl)cc2)c1 [Compound 269] | 0.04 | > 2.5 | 0.003 | 0.0003 | 0.001 | 25 | 0.0024 | > 0.01
CC(C)C(=Nc1ccc(F)c(Br)c1)OCc1ccc(F)c(Oc2ccc(F)cc2)c1 [Compound 273] | 0.015 | > 2.5 | 0.0003 | 0.000018 | 0.00025 | 7 | 0.0017 | 0.004
CC(C)C(=Nc1ccc(F)c(C(F)(F)F)c1)OCc1ccc(F)c(Oc2ccc(F)cc2)c1 [Compound 277] | 0.013 | 0.065 | 0.0003 | 0.00001 | 0.0005 | 4 | 0.005 | > 0.01
CC(C)C(=Nc1ccc(F)c(F)c1)OCc1ccc(F)c(Oc2ccc(F)cc2)c1 [Compound 278] | 0.008 | 0.085 | 0.0003 | 0.00002 | 0.00026 | 3 | 0.0012 | 0.0063
CC(C)C(=Nc1ccc(F)c(I)c1)OCc1ccc(F)c(Oc2ccc(F)cc2)c1 [Compound 281] | 0.006 | > 2.5 |  | 0.00002 | 0.00025 | 5 | 0.0027 | 0.005
CC(C)C(=Nc1ccc2c(c1)OC(F)(F)O2)OCc1ccc(F)c(Oc2ccccc2)c1 [Compound 285] | 0.005 | 0.13 |  | 0.000075 | 0.00017 | 36 | 0.0006 | 0.005
CC(C)C(=Nc1ccc(C(F)(F)F)cc1)OCc1ccc(F)c(Oc2ccc(Cl)cc2)c1 [Compound 324] | 0.025 | 0.06 |  | 0.00014 | 0.0004 | > 100 | 0.0024 | 
CC(C)C(=Nc1ccc(F)cc1)OCc1ccc(F)c(Oc2ccc(Cl)cc2)c1 [Compound 325] | 0.037 | > 2.5 |  | 0.00012 | 0.0006 | 5 | 0.0025 | 
CC(C)C(=Nc1ccc(F)c(Cl)c1F)OCc1cccc(Oc2ccc(Cl)cc2)c1 [Compound 331] | 0.04 | > 2.5 |  | 0.0002 | 0.0004 | 20 | 0.002 | 
CC(C)C(=Nc1ccc(F)c(F)c1)OCc1ccc(F)c(Oc2ccccc2)c1 [Compound 336] | 0.02 | > 2.5 |  | 0.00017 | 0.0005 | 3.6 | 0.001 | 0.0091
CC(C)C(=Nc1ccc(C(F)(F)F)cc1)OCc1ccc(F)c(Oc2ccccc2)c1 [Compound 337] | 0.008 | 0.067 |  | 0.0007 | 0.0005 | 21 | 0.0005 | 0.0053
CC(C)C(=Nc1ccc(F)c(F)c1F)OCc1ccc(F)c(Oc2ccc(F)cc2)c1 [Compound 349] | > 0.1 | > 2.5 |  | 0.00007 | 0.0004 | 4.9 | > 0.1 | > 0.01
